Ki data for 9 compounds are collected here from ChEMBL document CHEMBL1134775, “Structure-based design: potent inhibitors of human brain memapsin 2 (beta-secretase)” (J Med Chem, 2001).

For orientation: Ki means the equilibrium dissociation constant of an inhibitor or competing ligand from its target. A higher Ki goes with lower affinity.

Beta-secretase 1, sequence (P56817 whole entry): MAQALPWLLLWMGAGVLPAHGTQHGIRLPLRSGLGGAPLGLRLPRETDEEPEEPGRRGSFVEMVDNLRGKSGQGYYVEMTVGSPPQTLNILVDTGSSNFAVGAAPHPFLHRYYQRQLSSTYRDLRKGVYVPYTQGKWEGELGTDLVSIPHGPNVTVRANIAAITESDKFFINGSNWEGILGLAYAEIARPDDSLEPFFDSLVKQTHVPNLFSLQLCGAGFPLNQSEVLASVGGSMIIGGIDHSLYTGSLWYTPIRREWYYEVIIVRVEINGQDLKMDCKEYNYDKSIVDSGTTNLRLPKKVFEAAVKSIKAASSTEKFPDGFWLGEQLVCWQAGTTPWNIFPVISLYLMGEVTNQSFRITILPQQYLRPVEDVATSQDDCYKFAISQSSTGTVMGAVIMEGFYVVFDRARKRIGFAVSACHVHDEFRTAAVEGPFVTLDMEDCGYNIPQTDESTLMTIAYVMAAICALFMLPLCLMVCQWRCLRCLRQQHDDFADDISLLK

The assay concerns the target Beta-secretase 1 (Homo sapiens, UniProt P56817). Nature of the assay: Binding affinity for human brain memapsin 2.
For the compound `CC(C)C[C@H](NC(=O)[C@H](CS(C)(=O)=O)NC(=O)OC(C)(C)C)[C@@H](O)C[C@@H](C)C(=O)N[C@H](C(=O)NCc1ccccc1)C(C)C`, the affinity corresponds to a Ki of 1130 nM.

On to `CSCC[C@H](NC(=O)[C@@H](NC(=O)OC(C)(C)C)C(C)C)C(=O)N[C@@H](CC(C)C)[C@@H](O)C[C@@H](C)C(=O)N[C@H](C(=O)NCc1ccccc1)C(C)C`, for which the affinity corresponds to a Ki of 2.5 nM.

The compound `CC(C)C[C@H](NC(=O)[C@H](CC(N)=O)NC(=O)C(N)C(C)C)[C@@H](O)C[C@@H](C)C(=O)N[C@@H](C)C(=O)N[C@H](CCC(=O)O)C(=O)NC(Cc1ccccc1)C(=O)O` (some centres undefined) had a Ki of 36 nM.

As for `CSCC[C@H](NC(=O)OC(C)(C)C)C(=O)N[C@@H](CC(C)C)[C@@H](O)C[C@@H](C)C(=O)N[C@H](C(=O)NCc1ccccc1)C(C)C`, the Ki came out at 5810 nM.

Compound `CC(C)C[C@H](NC(=O)[C@H](CC(N)=O)NC(=O)[C@@H](NC(=O)OC(C)(C)C)C(C)C)[C@@H](O)C[C@@H](C)C(=O)N[C@@H](C)C(=O)NCc1ccccc1` returned a Ki of 61.4 nM.

For `CC(C)C[C@H](NC(=O)[C@H](CS(C)(=O)=O)NC(=O)[C@@H](NC(=O)OC(C)(C)C)C(C)C)[C@@H](O)C[C@@H](C)C(=O)N[C@H](C(=O)NCc1ccccc1)C(C)C`, the affinity, expressed as Ki, was 9.4 nM.

`CC(C)C[C@H](NC(=O)[C@H](CC(N)=O)NC(=O)OC(C)(C)C)[C@@H](O)C[C@@H](C)C(=O)N[C@@H](C)C(=O)NCc1ccccc1` registered an inhibition constant Ki of 22400 nM.

With `CC(C)C[C@H](NC(=O)[C@H](CC(N)=O)NC(=O)[C@@H](NC(=O)OC(C)(C)C)C(C)C)[C@@H](O)C[C@@H](C)C(=O)N[C@H](C(=O)NCc1ccccc1)C(C)C`, the Ki was 5.9 nM.

The compound `CSC[C@H](NC(=O)[C@@H](NC(=O)OC(C)(C)C)C(C)C)C(=O)N[C@@H](CC(C)C)[C@@H](O)C[C@@H](C)C(=O)N[C@H](C(=O)NCc1ccccc1)C(C)C` displayed a Ki of 50.1 nM.
